# Legend:
# [1] = system: hippocampal CA3-CA1 pathway of 5×FAD+/− mice; assay: Long-term potentiation / fEPSP recording in hippocampal slices from treated 5×FAD+/− mice; format: in vivo, mouse; conditions: vs DMSO
# Experimental: Adult genetically engineered mice, 5×FAD^+/− (Oakley et al., 2006), RyR2-E4872Q^+/− (EQ^+/−) (Chen et al., 2014), 5×FAD^+/−/RyR2-E4872Q^+/− (5×FAD^+/−/EQ^+/−), and wildtype (WT) littermates of both sexes were used. R-carvedilol (R-CV) (at doses of 0.8, 1.6 or 3.2 mg/kg/day), racemic carvedilol (3.2 mg/kg/day), and vehicle control (DMSO) were delivered to 5×FAD^+/− mice in drinking water for one month, starting at different ages before (2-3 months old) or after (3-4 months old) the occurrence of AD pathologies (Oakley et al., 2006). To assess the effects of genetically and pharmacologically limiting RyR2 open time on the prevention and rescue of AD deficits in different stages (early, moderate, and late) of AD progression, animals at different ages (from 2-15 months) were used. […] For 2-photon Ca^2+ imaging experiments, 5×FAD, RyR2 WT, and RyR2 mutant mice were cross-bred with the heterozygous Thy1-GCaMP6f transgenic mice (Chen et al., 2012; Chen et al., 2013) (GP5.17, JAX 025393) to express the GCaMP6f Ca^2+ sensing probe (driven by the Thy1 promotor) in hippocampal neurons in each of the genotypes used.
# Schaffer collateral fibers were stimulated at the CA3 subfield to record field excitatory postsynaptic potentials (fEPSPs) in the CA1 stratum radiatum of transverse hippocampal slices ([…]) from all genotypes and drug-treated mice at different ages. After recovering at room temperature for 1 h (or 2 h for brain slices from drug-treated mice), hippocampal slices were allowed to recover in the recording chamber for additional 10 min. To evaluate basal synaptic transmission, different stimulation strengths (0 μA to 200 μA in steps of 20 μA) were applied and plotted fEPSP slopes versus the current input to compare the slope of input/output (I/O) curves of fEPSP. In the experiments that followed, stimulus current was adjusted so that fEPSP stabilized at 40-50% of maximum. Baseline was recorded for at least […] until the differences among fEPSP slopes were within 10%. Long-term potentiation (LTP) was induced using a tetanic high-frequency stimulation (HFS; 4 trains of 100 pulses at 100 Hz, with 20-sec intervals). Synaptic responses were recorded for at least 60 min after tetanization and quantified as the slope of the evoked fEPSP as percentage of the baseline.
# [2] = system: 3×TG+/− mice; assay: Learning and memory tests (Morris water maze, novel object recognition) in 3×TG+/− mice; format: in vivo, mouse; conditions: 12-15 months old 3×TG+/− mice, 3.2 mg/kg/day for one month; vs DMSO
# Experimental: Genetically engineered mice of 12-15 months old, 3×TG+/− (Oddo et al., 2003), RyR2-E4872Q+/− (EQ+/−)(Chen et al., 2014), 3×TG+/−/RyR2-E48720+/− (3×TG+/−/EQ+/−), and WT littermates of both sexes were used. Sex differences, which may produce biological variables, were not investigated in this study. R-carvedilol (R-CV) (3.2 mg/kg/day) and vehicle control (DMSO) were delivered to 3×TG+/− mice in drinking water for one month. As shown previously, only heterozygous RyR2-E4872Q+/− mutant mice were produced as homozygous E4872Q+/+mutation is embryonic lethal (Chen et al., 2014). Functional RyR2s are tetrameric channels formed by 4 RyR2 monomers. The heterozygous E4872Q+/− mutant mice (harboring one WT allele and one E4872Q mutant allele) will produce a mixture of homo- and hetero-tetrameric channels that contain the WT, E48720 mutant, or both WT/E4872Q mutant monomers. Thus, the RyR2-E4872Q mutation can exert its negative impact not only on the function of the E4872Q homo-tetramers, but also on the function of the WT monomer in the WT/E4872Q hetero-tetrameric channels.
# The learning and memory of mice with all genotypes were evaluated using the Morris water maze (MWM) test, the Barnes maze (BM) test, and/or the novel object recognition (NOR) test. Experiments were carried out blindly. For the MWM test, mice at different ages were trained to localize a hidden escape platform (10×10 cm) in a circular pool (116.84 cm in diameter, 50 cm in depth) (San Diego Instruments, CA) via distal visual cue. The platform was submerged 1-2 cm beneath the surface in water (22-24°C.), which was rendered opaque by addition of milk powder. The localization of the pool in relation to visual cues was maintained constantly during the entire task. The cues were distinct in color and shape. Digital division of the tracking area (pool) into four quadrants was performed by the SMART video tracking system, Smart 3.0 (Panlab Harvard Apparatus; Barcelona Spain). The escape platform was placed in the centre of the south-west quadrant for the entirety of the learning phase (4 training days) and digitally defined as target. Spatial training consisted of 4 days with 5 trials per mouse per day. Mice were released with their heads facing the pool wall at one of four entry locations (north, east, south and west) in a non-repetitive random order. Swimming was automatically video-tracked until the subject found the escape platform and remained on it (≥5 sec), or until a maximum of 60 seconds. […] In between trials (inter-trial interval ≥10 min), mice were housed in heated cages to avoid performance deficits due to exhaustion or hypothermia. The latency and swimming speed to reach the escape platform were recorded for comparison. After the learning phase, memory retention was evaluated by one probe trial 24 hours after the last training session. The escape platform was removed before mice were released from the north entry point into the pool. Their swimming was video-tracked for 60 seconds. […] The percentage of time mice spent in the target quadrant (including the target) were measured for comparison.
# For the NOR test, mice were habituated for 10 min per mouse in an equally illuminated, odor-free, white, plastic box (40×40×50 cm^3) embedded with fresh aspen shavings and shreds. […] Mice were video recorded during this familiarizing phase. Side preferences was evaluated by dividing the time a mouse spent exploring one object by the time they spent at the other object. […]
structure (smiles),measurement,setting,value
"COc1ccccc1OCCNC[C@@H](O)COc1cccc2[nH]c3ccccc3c12 [R-carvedilol, R-(+)-carvedilol]",LTP impairment,"[1]; 3.2 mg/kg/day for one month started at 2-3 months of age (before AD symptoms), slices at 3-4 months",prevented
same,LTP impairment,"[1]; 3.2 mg/kg/day for one month started at 3-4 months of age (after AD symptom), slices at 4-5 months",rescued
same,reduced basal synaptic transmission (fEPSP slope vs stimulus intensity),"[1]; 5×FAD+/− hippocampal brain slices, 3-4, 4-5 and 6-7 months old treated mice",restored
same,LTP deficit,[1]; 6-7 months old 5×FAD+/− mice after 1-month treatment with 3.2 mg/kg/day,rescues
same,discrimination index in the NOR test,[2],increased
same,latency to the target platform in the MWM test,[2],significantly shortened
same,swimming speed in the MWM test,[2],increased
same,time spent in the target zone in the MWM test,[2],increased
same,walking velocity in the NOR test,[2],increased

# From US20230381139A1, “METHODS OF TREATING AND/OR PREVENTING ALZHEIMER’S DISEASE WITH R-CARVEDILOL” (priority 2020, published 2023)
